Literature values in patent US7348299B2, “Cleansing bar with distributed polymeric network providing enhanced delivery” (Conopco, Inc., priority 2005, dated 2008).

Columns and labels:
[1] = single component of 1:1 model perfume; no unit in table, K in Atm
[2] = single component of 1:1 model perfume; first/second component

K (volatility constant) [1] | φo/w (octanol/water partition coefficient) [2] | Molecule
5.5 | 31,600 | CCC(C)(CCCC(C)C)OC(C)=O (stereo not shown) [Tetrahydrolinalylacetate]
280 | 29648 | CC1=CCC2CC1C2(C)C (stereo not drawn) [alpha-pinene]
120 | 43,651 | C=CC(C)CCC=C(C)C (stereo not shown) [citronellene]
6 | 19,054 | CC(=O)OCCC(C)CCC=C(C)C (stereo not shown) [citronellyl acetate]
0.05 | 34.7 | CC(CC=O)CCCC(C)(C)O (stereo not shown) [hydroxycitonellal]
0.42 | 32,360 | CC(C=O)Cc1ccc(C(C)(C)C)cc1 (stereo not shown) [lilial]
265 | 31,000 | Cc1ccc(C(C)C)cc1 [p-cymene]

More lines, now with the values behind:

Molecule | K (volatility constant) [1] | φo/w (octanol/water partition coefficient) [2]
CC(=O)OCc1ccccc1 [Benzyl acetate] | 0.32 | 81
C=C(C)[C@H]1CC=C(C)CC1 [Limonene] | 98 | 
OCCc1ccccc1 [Phenylethylalcohol] | 0.1 | 22.9
CC=O [acetaldehyde] | 0.008 | 167
Methyl ionone | 5.2 | 
